From ChEMBL document CHEMBL1129779, “A novel class of antagonists for metabotropic glutamate receptors, 7-(Hydroxyimino)cyclopropa[b]chromen-1a-carboxylates” (Bioorg Med Chem Lett, 1996)

The compounds below were run against T1, Metabotropic glutamate receptor 1 (Homo sapiens, UniProt Q13255) (assay: Compound was tested for inhibition of glutamate-evoked (10 uM) [Ca2+] mobilization in Metabotropic glutamate receptor 1 expressed-CHO cells; NE: No effect at 1-100 uM).
Assay type: cell-based

T1 sequence (Q13255 whole entry): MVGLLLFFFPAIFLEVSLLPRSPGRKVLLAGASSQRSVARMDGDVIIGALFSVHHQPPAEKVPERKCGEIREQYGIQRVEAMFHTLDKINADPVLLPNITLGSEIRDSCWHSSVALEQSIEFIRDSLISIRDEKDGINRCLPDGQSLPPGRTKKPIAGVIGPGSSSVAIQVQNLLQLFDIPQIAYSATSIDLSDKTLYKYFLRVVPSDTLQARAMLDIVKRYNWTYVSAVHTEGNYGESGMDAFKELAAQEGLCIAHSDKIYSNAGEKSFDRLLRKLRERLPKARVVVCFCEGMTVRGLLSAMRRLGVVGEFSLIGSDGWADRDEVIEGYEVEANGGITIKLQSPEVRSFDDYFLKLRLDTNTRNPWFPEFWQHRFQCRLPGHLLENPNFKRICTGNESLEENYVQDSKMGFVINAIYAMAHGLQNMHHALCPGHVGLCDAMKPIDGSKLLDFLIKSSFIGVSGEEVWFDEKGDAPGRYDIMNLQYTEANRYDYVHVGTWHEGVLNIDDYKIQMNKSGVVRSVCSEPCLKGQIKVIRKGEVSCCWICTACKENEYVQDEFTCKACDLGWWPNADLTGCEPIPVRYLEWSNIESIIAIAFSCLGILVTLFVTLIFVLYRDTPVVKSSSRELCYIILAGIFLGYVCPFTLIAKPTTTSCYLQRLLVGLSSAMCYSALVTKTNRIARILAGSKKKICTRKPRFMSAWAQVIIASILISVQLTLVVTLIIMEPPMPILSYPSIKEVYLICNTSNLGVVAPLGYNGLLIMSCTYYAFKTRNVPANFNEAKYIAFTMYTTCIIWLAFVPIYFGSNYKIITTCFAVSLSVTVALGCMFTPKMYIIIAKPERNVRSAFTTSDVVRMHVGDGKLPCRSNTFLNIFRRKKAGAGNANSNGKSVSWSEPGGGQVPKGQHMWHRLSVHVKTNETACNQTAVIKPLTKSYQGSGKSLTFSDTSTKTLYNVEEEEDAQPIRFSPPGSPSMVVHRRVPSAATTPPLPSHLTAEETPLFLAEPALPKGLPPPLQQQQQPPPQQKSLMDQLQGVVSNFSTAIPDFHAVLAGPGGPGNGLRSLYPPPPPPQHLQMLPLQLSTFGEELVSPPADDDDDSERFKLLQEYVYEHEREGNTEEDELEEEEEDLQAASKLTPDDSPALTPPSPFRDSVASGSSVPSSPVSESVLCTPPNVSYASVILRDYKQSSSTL

Row | SMILES | IC50
1 | O=C(Nc1ccccc1)c1cc(=O)c2ccccc2o1 | No effect
2 | CCOC(=O)c1cc(=O)c2ccccc2o1 | No effect
3 | O=C1c2ccccc2OC2(C(=O)Nc3ccccc3)CC12 (stereo unspecified) | No effect
4 | CN(C(=O)c1cc(=O)c2ccccc2o1)c1ccccc1 | No effect

Next, values leading:

Row | IC50 | SMILES
5 | No effect | CN(C(=O)C12CC1C(=O)c1ccccc1O2)c1ccccc1 (stereo unspecified)
6 | No effect | CCOC(=O)C12CC1C(=O)c1ccccc1O2 (stereo unspecified)

Each compound was assayed against T1, Metabotropic glutamate receptor 1 (assay: Compound was tested for inhibition of glutamate-evoked (10 uM) [Ca2+] mobilization in mGluR1-alpha expressed-CHO cells.).
Assay type: cell-based

Row | SMILES | IC50 [µM]
7 | CC(N)(C(=O)O)c1ccc(C(=O)O)cc1 (stereo unspecified) | 700
8 | NC(C(=O)O)c1ccc(C(=O)O)c(O)c1 (stereo unspecified) | 200

Continued, values first:

Row | IC50 [µM] | SMILES
9 | 23 | CCOC(=O)C12CC1/C(=N\O)c1ccccc1O2 (stereo unspecified)
10 | 3 | O=C(Nc1ccccc1)C12CC1/C(=N\O)c1ccccc1O2 (stereo unspecified)
11 | 10 | CN(C(=O)C12CC1/C(=N\O)c1ccccc1O2)c1ccccc1 (stereo unspecified)
